In patent publication US6365571B1, “FGF inhibitor, angiogenesis inhibitor and antitumor agent containing complestatin or its derivative as effective ingredient” (NODA Institute for Scientific Research, priority 1998, dated 2002):

How the values were obtained:
[1] = system: human umbilical vein endothelial cells (HUVEC); experiment: Inhibition of HUVEC cell growth stimulated by bFGF; type: cell-based; conditions: various concentrations, 10 ng/ml bFGF, 2 days, FIG. 8
Experimental: (§1) Growth of both fetal bovine heart endothelial (FBHE) cells and human umbilical vein endothelial cells (HUVEC) was promoted by addition of bFGF to the media. The inhibitory effect of complestatin on the cell growth stimulated by bFGF was investigated using these cells.
(2) On the other hand, medium containing HUVEC at a concentration of 1×10^4 cells/ml (MCDB131 medium containing 10% fetal bovine serum, 25 mM HEPES (pH 7.5), 10 units/ml of penicillin and 10 μg/ml of streptomycin) was prepared for the cell suspension. One ml aliquots of the cell suspension were inoculated into each well of a 12-well plate precoated with type I collagen, and incubated for one day at 37° C. in a CO2 incubator. 10 ng/ml of bFGF and various concentrations of complestatin were added to each well followed by additional incubation for 2 days at 37° C. in a CO2 incubator. Next, the number of cells in each well was counted with a Coulter Counter (trade name, available from Coulter Electronics Co.). Furthermore, with the exception of not adding complestatin, the same procedure was performed for the control.

[2] = system: bFGF receptors; experiment: Inhibition of specific binding of 125I-bFGF to receptors on Balb/3T3 clone A31 cells; set-up: species or system mouse; conditions: various concentrations, 2 ng/ml 125I-bFGF, 1.5 hours at 4° C., FIG. 5
Experimental: (3) Inhibitory effects on binding of bFGF to receptors was investigated for the above-mentioned sample solution according to the method of A. Yayon, et al. (Proc. Natl. Acad. Sci., USA, 90, 10643, 1993).
Namely, 1 ml of medium containing mouse fibroblast cell Balb/3T3 clone A31 cells at a concentration of 1×10^5 cells/ml (Dulbecco's modified Eagle's medium containing 10% calf serum, 25 mM HEPES (pH 7.5), 10 units/ml of penicillin and 10 μg/ml of streptomycin (10% CS/DMEM)) was added to a 24-well culture plate, and cultured for one day at 37° C. in a CO2 incubator. Furthermore, mouse fibroblast cells are known to express FGF receptors on their cell surfaces (J. Biol. Chem., 268, 9611, 1993). […]
Following completion of the reaction, after removing the binding medium and washing once with cold binding medium, the plate was washed twice with cold PBS (0.2 g potassium chloride, 0.2 g potassium primary phosphate, 8 g sodium chloride, 1.15 g sodium secondary phosphate and 1 liter of deionized water) at pH 7.5 containing 1.6 M sodium chloride. […] This procedure was repeated again, the solution was combined with the previous solution and then transferred to an RIA tube where radioactivity was measured with a gamma counter (available from Pharmacia Co.).
The amount of bFGF bound to receptors (specifically bound amount) was determined according to the following formula: […]

[3] = system: mouse fibrosarcoma (Meth A) cells; experiment: Antitumor activity, Meth A cells transplanted subcutaneously to mice; type: in vivo; conditions: days 1 to 4 and 7 to 9, BALB/c-nu/nu mice, tumor size after 10 days
Experimental: The antitumor activity of complestatin was confirmed in an experiment using mouse fibrosarcoma (Meth A) cells. To begin with, 1×10^6 Meth A cells cultured in the abdominal cavity of BALB/c-nu/nu mice were transplanted subcutaneously to BALB/c-nu/nu mice (control group: 5 mice, experimental group: 5 mice), and tumor size was measured after 10 days.
Complestatin was dissolved in PBS, and administered intraperitoneally at 250μl/day once a day during days 1 to 4 and days 7 to 9. The dosing concentrations of complestatin were set at 5 mg/kg and 10 mg/kg. The tumor growth inhibition rate caused by complestatin was calculated according to the following formula:
{1− (tumor size at each dosing concentration/tumor size at dosing concentration of 0 mg/kg)}×100

[4] = system: Balb/3T3 clone A31 cells; experiment: Inhibition of cell migration stimulated by bFGF (chemotaxis chamber); type: cell-based, mouse; conditions: various concentrations, 1 ng/ml bFGF, 5 hours, FIG. 7
Excerpt: The effect of complestatin on cell migration stimulated by bFGF was investigated using a 96-well chemotaxis chamber (available from NEURO PROBE CO.) installed with an 8 μm frame filter (available from NEURO PROBE CO.) precoated with gelatin.
The experimental principle is illustrated-in FIG. 6. When bFGF is placed in the bottom well, cells adhered to the frame filter in the top well migrate to the bottom well.
Addition of complestatin to the bottom well can be used to investigate the inhibitory effect of complestatin on cell movement.
(1) 100 μl of cell suspension (0.5% CS/DMEM containing Balb/3T3 clone A31 cells at a concentration of 5×10^5 cells/ml) were placed in the top wells. In addition, 35 μl of 0.5% CS/DMEM containing various concentrations of complestatin and 1 ng/ml of bFGF were placed in the bottom wells.
(2) After incubating the chamber for 5 hours at 37° C. in a CO2 incubator, the frame filter was removed from the chamber, the cells were stained with Diff-Quik staining solution (trade name, available from Kokusai Shiyaku Co.), and the number of cells that migrated to the bottom surface of the filter was counted. Furthermore, with the exception of not adding complestatin to the bottom wells, the same procedure was performed for the control.

[5] = system: chorioallantoic membrane of chick embryo; experiment: Angiogenesis in the chick embryo chorioallantoic membrane; type: in vivo; conditions: 2 days, % of fertilized eggs with inhibition
Experimental: The inhibitory effect of complestatin on angiogenesis in the chorioallantoic membrane of chick embryo was investigated according to the method of T. Oikawa, et al. (J. Antibiotics, 44, 1033, 1991). To begin with, a portion of the uppermost part of the air chamber measuring about 1 cm square was removed from three-day-old fertilized chicken eggs, and cultured for 2 days in a humidified incubator. A silicon ring having an outer diameter of 5 mm and inner diameter of 3 mm was placed on the 5-day-old chorioallantoic membrane, and 10 μl of a 1% methylcellulose solution containing various concentrations of the complestatin obtained in Example 2 were added to the inside of the ring.
Moreover, after incubating for 2 days, a suitable amount of fat emulsion (Intralipos, trade name, available from Midori Juji Co.) was injected beneath the chorioallantoic membrane to facilitate microscopic observation followed by observation of angiogenesis in the chorioallantoic membrane. Fertilized eggs in which a region free of blood vessels in the chorioallantoic membrane (having a diameter of at least 3 mm) were judged as having observed inhibition of angiogenesis by complestatin. Angiogenesis inhibition rate (%) was calculated according to the following formula:
100× (number of fertilized eggs in which inhibition of angiogenesis was observed)/(number of fertilized eggs used in test)

[6] = system: human leukemia (HL-60) cells; experiment: Antitumor activity, HL-60 cells transplanted subcutaneously to SCID mice; type: in vivo, mouse; conditions: 5 mg/kg intraperitoneally, days 1 to 3, 5 to 9, 12 and 13, CB17 SCID mice, tumor size after 20 days
Experimental: The antitumor activity of complestatin was confirmed in an experiment using human leukemia (HL-60) cells. To begin with, 5×10^6 HL-60 cells were transplanted subcutaneously to CB17. SCID mice (control group: 4 mice, experimental group: 4 mice), and tumor size was measured after 20 days. Complestatin was dissolved in PBS, and administered intraperitoneally at 250μl/day once a day during days 1 to 3, days 5 to 9 and days 12 and 13. The dosing concentration of complestatin was set at 5 mg/kg. The tumor growth inhibition rate caused by complestatin was calculated according to the following formula:
{1− (tumor size at dosing concentration/tumor size at dosing concentration of 0 mg/kg)}×100

[7] = system: fetal bovine heart endothelial (FBHE) cells; experiment: Inhibition of FBHE cell growth stimulated by bFGF; type: cell-based; conditions: various concentrations, 1 ng/ml bFGF, 2 days, FIG. 8
Experimental: as §1
(1) 10% CS/DMEM containing FBHE at a concentration of 1×10^4 cells/ml was prepared for the cell suspension. One ml aliquots of this solution were then inoculated into each well of a 12-well plate and cultured for one day at 37° C. in a CO2 incubator. 1 ng/ml of bFGF and various concentrations of complestatin were added to each well followed by additional culturing for 2 days at 37° C. in a CO2 incubator. Next, the number of cells in each well was counted with a Coulter Counter (trade name, available from Coulter Electronics Co.).

[8] = system: bovine aortic endothelial cells (BAEC); experiment: Tube formation of vascular endothelial cells in collagen gel; type: cell-based; conditions: Bos taurus, 48 h, 2 days, read-out: Tube formation inhibition rate
Experimental: The inhibitory effect of complestatin on angiogenesis was investigated using a modified method of Furubayashi, et al. (J. Jap. Pharm., 105, 357, 1995). In this method, vascular endothelial cells form a tube (blood vessel-like tubular structure) in collagen gel. Addition of complestatin to this system makes it possible to investigate the inhibitory effect of complestatin on angiogenesis.
(1) Collagen gel was prepared in the manner described below. To begin with, type I collagen solution (3 mg/ml, available from Wako Junyaku Co.), 10-fold concentrated HEPES-free DMEM, reconstitution buffer (2.2 g of sodium bicarbonate and 4.77 g of HEPES dissolved in 100 ml of 0.05 N aqueous sodium hydroxide solution) and deionized water were mixed on ice at a ratio of 5:1:1:3 followed by the addition of 0.75 ml aliquots to each well of a 12-well plate. This plate was then incubated for 20 minutes in an incubator at 37° C. to form a gel.
(2) A cell suspension was prepared by suspending 3×10^5 cells/ml of bovine aortic endothelial cells (BAEC) in 10% CS/DMEM, after which 1.5 ml aliquots were inoculated onto the collagen gel followed by culturing for one day at 37° C. in a CO2 incubator. After removing the medium and washing four times with DMEM, 0.75 ml aliquots of the above-mentioned type I collagen solution were layered onto the plate followed by gelation at 37° C. in an incubator. 1.5 ml of 0.5% CS/DMEM containing various concentrations of complestatin were added to the resulting gel followed by culturing for 2 days at 37° C. in a CO2 incubator.
(3) After culturing, photographs were taken of four fields randomly selected for each well and these photographs were then analyzed by using the Olympus image processing analyzer Type SP500F (trade name, available from Olympus Co.) to determine the lengths of all tubes. The length of tube was then divided by the field area to determine the tube length per unit area.
The tube formation inhibition rate of complestatin was calculated according to the following formula:
{1− (tube length per unit area at each concentration/tube length per unit area in the absence of addition of complestatin)}×100

CN1C(=O)C(c2cc(Cl)c(O)c(Cl)c2)NC(=O)C2NC(=O)C(c3cc(Cl)c(O)c(Cl)c3)NC(=O)C(NC(=O)C(=O)c3cc(Cl)c(O)c(Cl)c3)Cc3c[nH]c4cc(ccc34)-c3cc2cc(c3O)Oc2ccc(cc2)CC1C(=O)NC(C(=O)O)c1ccc(O)cc1 (centres unmarked) [complestatin]
inhibition of growth of HUVEC promoted by bFGF [1]: concentration-dependently inhibit
inhibition of specific binding of 125I-bFGF to receptors [2]: concentration-dependently inhibit
Growth inhibition rate (tumor size) ([3]; 5 mg/kg intraperitoneally): 40%
Growth inhibition rate (tumor size) ([3]; 10 mg/kg intraperitoneally): 68%
inhibition of Balb/3T3 clone A31 cell migration stimulated by bFGF [4]: concentration-dependently inhibit
Angiogenesis inhibition rate ([5]; 6.25 μg/egg): 14%
Angiogenesis inhibition rate ([5]; 12.5 μg/egg): 33%
Angiogenesis inhibition rate ([5]; 25 μg/egg): 33%
Angiogenesis inhibition rate ([5]; 50 μg/egg): 52%
Angiogenesis inhibition rate ([5]; 100 μg/egg): 77%
Growth inhibition rate (tumor size) [6]: 76%
inhibition of growth of FBHE promoted by bFGF [7]: concentration-dependently inhibit
inhibition at 0.78 µg/mL ([8]; 0.78 μg/ml complestatin): 3%
inhibition at 1.6 µg/mL ([8]; 1.6 μg/ml complestatin): 17%
inhibition at 3.1 µg/mL ([8]; 3.1 μg/ml complestatin): 10%
inhibition at 6.3 µg/mL ([8]; 6.3 μg/ml complestatin): 21%
inhibition at 13 µg/mL ([8]; 13 μg/ml complestatin): 43%
inhibition at 25 µg/mL ([8]; 25 μg/ml complestatin): 91%
inhibition at 50 µg/mL ([8]; 50 μg/ml complestatin): 94%
inhibition at 100 µg/mL ([8]; 100 μg/ml complestatin): 99%
